Measurements: patent US11389539B2, “Hyaluronic acid derivatives into which cationic and hydrophobic groups are introduced” (CHUGAI SEIYAKU KABUSHIKI KAISHA, priority 2016, dated 2022)

Columns and labels:
ApoB mRNA = assay: Suppression of gene expression by HA derivatives containing nucleic acid (transfection of HepG2 cells, quantitative real-time PCR); type: cell-based, Human; details: siRNA 200 nM, 24 hours
Method: ApoB (sense strand: [NT] ID No. 1, number of nucleotides: 21), antisense strand: 3'-[…] ID No. 2, number of nucleotides: 23)) was used as siRNA. First, an aqueous solution of 0.5 mg/mL siRNA and 0.1-M Hepes buffer were mixed, to which 6 mg/mL aqueous solutions of the HA derivatives obtained in Examples 2 and 4 were added to an N/P ratio of 10 or 20 and was pipetted to prepare agents containing nucleic acid (the final concentration of siRNA was 800 nM and the final concentration of Hepes was 10 mM). In order to assess suppression effects of the HA derivatives containing nucleic acid obtained in Example 8-1 on gene expression, a transfection experiment was performed to HepG2 cells. The sucrose solutions containing the HA derivatives containing nucleic acid were added to a 96-well plate. HepG2 cells suspended in DMEM supplemented with 10% FBS was added to 1×10^4 cells/well and cultured for 24 hours. The final concentration of siRNA in transfection was 200 nM. Total RNA was extracted and purified according to the manual using a QIAGEN RNeasy 96 kit. By using the RNA-to-Ct 1 Step kit manufactured by Thermo Fisher Scientific, quantitative real-time PCR was performed on the target ApoB mRNA and GAPDH mRNA as the housekeeping gene using the following primers according to the instruction manual. For the quantitative real-time PCR, Rotor-Gene Q manufactured by QIAGEN was used. […]

[1] = Assessment of intraocular migration of eye drops (fluorescent-labeled HA derivative, confocal microscope); type: in vivo; details: mice, 3 μL eye drops to both eyes, 1 hour, frozen sections
Method: The 10k-HA-Chol-17%/ArgNH2-10%/EtOH-67%/FL synthesized in Example 2-26 was dissolved in 10% sucrose solution to a concentration of 50 mg/mL, and 3 μL of the resulting solution was applied to both eyes of mice. Both eyeballs were taken out after 1 hour and frozen sections were prepared. […] On the other hand, carboxyfluorescein was dissolved in 10% sucrose solution to a concentration of 0.0568 mg/mL, 3 μL of the resulting solution was applied to both eyes of mice, and an observation was performed as in the case of the 10k-HA-Chol-17%/ArgNH2-10%/EtOH-67%/FL. As a result, fluorescence from carboxyfluorescein was not observed in any tissues of the eyes including the cornea, conjunctiva and ciliary body.

distribution in the conjunctiva and the ciliary body by fluorescence detection [1] | distribution in the cornea by fluorescence detection [1] | Substance | expression of ApoB (ApoB mRNA)
– | – | siRNA alone: ApoB siRNA, sense strand SEQ ID No. 1 (21 nucleotides), antisense strand SEQ ID No. 2 (23 nucleotides) (sense GUCAUCACACUGAAUACCAAU; antisense AUUGGUAUUCAGUGUGAUGACAC; listed as RNA, chemistry not given here) | does not have an effect of suppressing gene expression
not observed | not observed | carboxyfluorescein | –
